Values of other authors, collected in patent US20210008095A1, “METHODS FOR TREATING MUSCULAR DYSTROPHY” (Sarepta Therapeutics, Inc., priority 2015, published 2021).

What was measured:
patient cells = conditions: cited from earlier work
mouse model of DMD = conditions: cited from earlier work

For `O=C1CN(/N=C/c2ccc(-c3ccc([N+](=O)[O-])cc3)o2)C(O)=N1` [dantrolene], the “effect on antisense-mediated exon skipping” value (patient cells) is listed as “enhance antisense-mediated exon skipping” and the “effect on antisense-mediated exon skipping” value (mouse model of DMD) is listed as “enhance antisense-mediated exon skipping”.
